The record followed here is ChEMBL document CHEMBL4665882, “Allosteric kidney-type glutaminase (GLS) inhibitors with a mercaptoethyl linker” (Bioorg Med Chem, 2020).

Structures are written as SMILES.

Data set [1] can be described thus: Inhibition of human recombinant glutaminase assessed as reduction in glutamate production in presence of NADPH-dependent glutamate dehydrogenase preincubated 60 mins by coupled biochemical assay.
In data set [2] the target is T1, Glutaminase kidney isoform, mitochondrial (Homo sapiens, UniProt O94925).
T1 sequence (O94925 whole entry): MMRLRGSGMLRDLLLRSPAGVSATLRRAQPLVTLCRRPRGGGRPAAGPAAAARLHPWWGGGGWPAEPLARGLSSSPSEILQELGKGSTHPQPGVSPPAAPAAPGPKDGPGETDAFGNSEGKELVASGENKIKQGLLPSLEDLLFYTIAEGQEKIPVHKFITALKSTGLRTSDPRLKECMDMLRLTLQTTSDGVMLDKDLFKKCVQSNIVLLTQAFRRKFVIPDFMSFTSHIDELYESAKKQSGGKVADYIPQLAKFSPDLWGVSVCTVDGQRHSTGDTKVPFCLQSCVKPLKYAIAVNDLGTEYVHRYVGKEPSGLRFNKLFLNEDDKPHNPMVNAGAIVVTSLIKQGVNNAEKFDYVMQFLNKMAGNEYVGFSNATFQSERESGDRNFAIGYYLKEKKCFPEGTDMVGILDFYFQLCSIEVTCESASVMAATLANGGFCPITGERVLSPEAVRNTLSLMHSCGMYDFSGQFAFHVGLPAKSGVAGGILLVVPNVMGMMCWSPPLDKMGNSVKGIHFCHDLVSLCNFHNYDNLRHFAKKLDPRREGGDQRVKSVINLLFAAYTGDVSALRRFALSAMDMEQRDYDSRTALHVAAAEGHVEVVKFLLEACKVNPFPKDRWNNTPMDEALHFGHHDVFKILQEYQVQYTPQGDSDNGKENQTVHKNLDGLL
Put plainly: Allosteric inhibition of human kidney glutaminase using [3H]-Glutamine as substrate in presence of inhibitor incubated for 45 mins by Perkin Elmer based assay.

A short description of data set [3]: Aqueous solubility of compound in PBS 7.4 at 5 mg/ml incubated for 24 hrs by LC-MS-based shake-flask method. Particulars: buffer, pH 7.4, 24 h. The class given is physicochemical.
Data set [4] can be described thus: Inhibition of glutaminase (unknown origin) preincubated for 60 mins. More on the design: species or system Homo sapiens.
The nature of data set [5]: Metabolic stability in mouse liver microsomes assessed as compound remaining after 60 mins incubation in presence of NADPH by LC-MS/MS analysis. In kind it is ADME, Microsome. Particulars: 1 h. For orientation: Liver microsomes are a subcellular fraction often used to study metabolism.

The term IC50 denotes the midpoint of a concentration-inhibition curve. In the case of `O=C(Cc1cccc(OC(F)(F)F)c1)Nc1ccc(CCCCc2nnc(NC(=O)Cc3ccccn3)s2)nn1`, the IC50 in data set [1] was under 50 nM.
Regarding `O=C(Cc1cccc(OC(F)(F)F)c1)Nc1nnc(CCSc2nnc(NC(=O)Cc3ccccc3)s2)s1`, in data set [2], the IC50 was 140 nM.
On to `CN(C)c1ccc(CC(=O)Nc2nnc(CCSc3nnc(NC(=O)Cc4ccccc4)s3)s2)cc1`, for which the IC50 in data set [2] worked out at 200 nM.
As for `Nc1nnc(SCCc2nnc(NC(=O)Cc3ccccc3)s2)s1`, in data set [2], the IC50 came out at 3000 nM.
Regarding `O=C(Cc1ccccc1)Nc1ccc(CCSc2nnc(NC(=O)Cc3ccccc3)s2)nn1`, the solubility result in data set [3] is recorded as “Insoluble”. Besides, the IC50 in data set [2] came out at 30 nM.
For the compound `O=C(Cc1ccccc1)Nc1nnc([C@H]2CCC[C@H](c3nnc(NC(=O)Cc4ccccc4)s3)C2)s1` (racemic), the IC50 in data set [2] is 280 nM.
The compound `O=C(Cc1ccccc1)Nc1nnc([C@H]2CCC[C@H](c3nnc(NC(=O)Cc4ccccc4)s3)C2)s1` registered an IC50 in data set [4] of under 100 nM.
Regarding `Nc1nnc(CCSc2nnc(NC(=O)Cc3ccccc3)s2)s1`, the IC50 in data set [2] was found to be 1600 nM.
With `Nc1nnc(CCSc2ccc(NC(=O)Cc3ccccc3)nn2)s1`, the IC50 in data set [2] worked out at 14000 nM.
For `O=C(Cc1ccccc1)Nc1nnc(CCSc2nnc(NC(=O)Cc3ccccc3)s2)s1`, in data set [5], the Stabilty is 87%. For the same compound, in data set [2], the IC50 was 50 nM.
`O=C(Cc1ccccc1)Nc1nnc(CSCc2nnc(NC(=O)Cc3ccccc3)s2)s1`: the IC50 is over 100000 nM in data set [2] and over 20000 nM in data set [4].
In the case of `O=C(Cc1ccccc1)Nc1nnc(CCSc2nnc(NC(=O)Cc3ccccn3)s2)s1`, the IC50 in data set [2] turned out to be 100 nM.
Regarding `O=C(Cc1ccccn1)Nc1nnc(CCSc2nnc(NC(=O)Cc3ccccc3)s2)s1`, the IC50 in data set [2] stood at 110 nM.
Regarding `Nc1nnc(SCCc2ccc(NC(=O)Cc3ccccc3)nn2)s1`, the IC50 in data set [2] was determined as 6800 nM.
